PMC4435632, “Phase 1 study of ixazomib, an investigational proteasome inhibitor, in advanced non-hematologic malignancies” (Investigational New Drugs, 2015)

Columns and labels:
[1] = tested on: advanced non-hematologic malignancies; experiment: Disease response (RECIST 1.0 / modified PCWG2); assay type: in vivo, human
Excerpt: (§1) AEs were monitored throughout the study and were graded according to National Cancer Institute Common Terminology Criteria for Adverse Events (NCI-CTCAE) v3.0. Response assessments were undertaken by investigators using a consistent imaging modality in accordance with RECIST 1.0 [23] on days 18–21 of cycle 2 and subsequent cycles. For patients with prostate cancer, response and progressive disease were based on RECIST for measurable neoplastic disease or on measurement of serum PSA per modified PCWG2 criteria in the absence of measurable sites.
(§2) The safety population included all patients who received ≥1 dose of ixazomib, and the DLT-evaluable population, which was used for determination of the MTD, comprised patients who received all cycle 1 doses of ixazomib or experienced a DLT in cycle 1. […] The response-evaluable population included all patients who received ≥1 dose of ixazomib, had measurable disease at baseline, and had ≥1 post-baseline disease assessment. Approximately 16 response-evaluable patients were planned to be evaluated in each MTD expansion cohort.

[2] = Ixazomib in tumor biopsies (LC/MS/MS); assay type: in vivo, human; details: TPEC, 1.76 mg/m^2; 10 evaluable patients
Description: Tumor biopsies were analyzed for the presence of ixazomib using a quantified LC/MS/MS methodology validated in xenograft models. Expression of ATF-3 was measured in the TPEC using an IHC staining assay developed and validated using preclinical and human primary tumor samples. For this assay, formalin-fixed, paraffin-embedded tumor biopsy samples were obtained pre- and post-treatment (at 4–24 h post-dosing on day 1 or day 4 of cycle 1). Six 5 μm sections from each tumor sample were then cut (10 μm apart) and stained with antibody to ATF-3 (Santa Cruz Biotechnology, Inc., sc-188, lot:K1908) on a Discovery XT autostainer (Ventana Medical Systems, Inc.). After staining, whole slides were scanned and analyzed to calculate the percentage ATF-3-positive area for each section using the Genie™ (Aperio® ePathology Solutions) pattern recognition tool. The ATF-3-positive area was measured within the tumor region using the Positive Pixel Count algorithm, and the percentage ATF-3-positive area/total tumor area was then calculated for each section.
Approximately 16 patients were planned to be enrolled to the TPEC to estimate ixazomib concentrations in tumors and target engagement as ATF-3 expression levels. […] This value was used to determine the minimum number of sections (n = 6) for pharmacodynamic analysis and the size of the fold change in ATF-3 that could be detected with 80 % power. […]

[3] = tested on: patients with advanced non-hematologic malignancies; experiment: Safety: adverse events graded by NCI-CTCAE v3.0, phase 1 study of IV ixazomib; assay type: in vivo
Excerpt: Patients received ixazomib as an IV bolus on days 1, 4, 8, and 11 of a 21-day cycle, for up to 12 cycles, or until disease progression or unacceptable toxicity. Patients who were thought to potentially benefit from prolonged therapy could receive continued treatment beyond 12 cycles according to the treating physician’s consideration. Patients could receive prophylactic antiviral therapy; prophylactic antidiarrheals and antiemetics were not employed initially but could be considered upon development of diarrhea or nausea/vomiting.
as §1, §2
All efficacy and safety data were summarized using descriptive statistics. Pharmacokinetic and pharmacodynamic parameters were calculated using noncompartmental methods (WinNonlin software v5.3).

[4] = tested on: ATF-3; experiment: ATF-3 IHC staining in pre- and post-dose tumor biopsies; assay type: in vivo, human; details: TPEC, 1.76 mg/m^2; seven evaluable tumor pairs
Description: This open-label, non-randomized, dose-escalation phase 1 study was conducted at 7 sites in the United States and Canada, with patients enrolled from March 02, 2009 to January 10, 2012. The primary objective of the trial was to determine the safety profile, establish the maximum tolerated dose (MTD), and inform the recommended phase 2 dose of IV ixazomib in patients with non-hematologic malignancies. Secondary objectives were to characterize the pharmacokinetics and pharmacodynamics of IV ixazomib in blood and to evaluate disease response. Drug distribution and target engagement in post-dose tumor samples was measured by determining the increase in ATF-3 levels in post-dose tumor samples compared with pre-dose samples by immunohistochemistry (IHC).
Tumor biopsies were analyzed for the presence of ixazomib using a quantified LC/MS/MS methodology validated in xenograft models. Expression of ATF-3 was measured in the TPEC using an IHC staining assay developed and validated using preclinical and human primary tumor samples. For this assay, formalin-fixed, paraffin-embedded tumor biopsy samples were obtained pre- and post-treatment (at 4–24 h post-dosing on day 1 or day 4 of cycle 1). […] After staining, whole slides were scanned and analyzed to calculate the percentage ATF-3-positive area for each section using the Genie™ (Aperio® ePathology Solutions) pattern recognition tool. […]

CC(C)C[C@H](NC(=O)CNC(=O)c1cc(Cl)ccc1Cl)B(O)O [ixazomib]
Patients with stable disease ([1]; 92 response-evaluable patients): 30 patients
Patients with stable disease lasting for ≥4 cycles ([1]; 92 response-evaluable patients): eight
Patients with partial response ([1]; 92 response-evaluable patients, head and neck cancer, MTD 1.76 mg/m^2): one
Reduction in tumor diameter ([1]; one patient with kidney malignancy, progressive disease at end of study): 14%
Reduction in tumor diameter ([1]; other patient with kidney malignancy, discontinued due to grade 3 acute renal failure): 22%
Total duration of partial response ([1]; patient with head and neck cancer, achieved after 4 cycles, maintained for 8 cycles): 6.7 months
Ixazomib in post-dose tumor biopsies [2]: present in all 10 post-dose biopsies analyzed
Any on-study deaths ([3]; Dose-escalation cohort (n=23)): 3 (13) n (%)
Any on-study deaths ([3]; MTD expansion cohort H&N (n=22)): 2 (9) n (%)
Any on-study deaths ([3]; MTD expansion cohort NSCLC (n=20)): 0 n (%)
Any on-study deaths ([3]; MTD expansion cohort PC (n=11)): 0 n (%)
Any on-study deaths ([3]; MTD expansion cohort STS (n=20)): 1 (5) n (%)
Any on-study deaths ([3]; MTD expansion cohort TPEC (n=20)): 1 (5) n (%)
Any on-study deaths ([3]; Total (N=116)): 7 (6) n (%)
Drug-related AE: alopecia ([3]; human, in vivo): < 1%
Drug-related AE: circumoral edema ([3]; human, in vivo): < 1%
Drug-related AE: dermatitis acneiform ([3]; human, in vivo): 2%
Drug-related AE: dry skin ([3]; human, in vivo): 2%
Drug-related AE: erythema nodosum ([3]; human, in vivo): < 1%
Drug-related AE: exfoliative rash ([3]; human, in vivo): < 1%
Drug-related AE: night sweats ([3]; human, in vivo): < 1%
Drug-related AE: petechiae ([3]; human, in vivo): < 1%
Drug-related AE: pruritus ([3]; human, in vivo): 4%
Drug-related AE: rash ([3]; human, in vivo): 6%
Drug-related AE: rash erythematous ([3]; human, in vivo): 9%
Drug-related AE: rash macular ([3]; human, in vivo): 13%
Drug-related AE: rash maculo-papular ([3]; human, in vivo): 17%
Drug-related AE: rash papular ([3]; human, in vivo): 10%
Drug-related AE: rash pruritic ([3]; human, in vivo): 13%
Drug-related AE: skin exfoliation ([3]; human, in vivo): < 1%
Drug-related AE: skin hyperpigmentation ([3]; human, in vivo): < 1%
Drug-related AE: swelling face ([3]; human, in vivo): < 1%
Drug-related AE: urticaria ([3]; human, in vivo): < 1%
Drug-related PN NEC ([3]; human, in vivo): 15%
Drug-related PN NEC, grade 1 ([3]; human, in vivo): 6 n
Drug-related PN NEC, grade 2 ([3]; human, in vivo): 8 n
Drug-related grade ≥3 AE: erythema nodosum ([3]; human, in vivo): < 1%
Drug-related grade ≥3 AE: rash ([3]; human, in vivo): < 1%
Drug-related grade ≥3 AE: rash erythematous ([3]; human, in vivo): 2%
Drug-related grade ≥3 AE: rash macular ([3]; human, in vivo): 3%
Drug-related grade ≥3 AE: rash maculo-papular ([3]; human, in vivo): 7%
Drug-related grade ≥3 AE: rash papular ([3]; human, in vivo): < 1%
Drug-related grade ≥3 AE: rash pruritic ([3]; human, in vivo): 3%
Drug-related grade ≥3 fatigue ([3]; human, in vivo): 9%
Drug-related grade ≥3 thrombocytopenia ([3]; human, in vivo): 23%
Drug-related serious AE: dehydration ([3]; human, in vivo): 3%
Drug-related serious AE: fatigue ([3]; human, in vivo): 3%
Drug-related serious AE: nausea ([3]; human, in vivo): 3%
Drug-related serious AE: thrombocytopenia ([3]; human, in vivo): 6%
Drug-related serious AE: vomiting ([3]; human, in vivo): 3%
Drug-related serious AEs ([3]; human, in vivo): 28%
Drug-related thrombocytopenia ([3]; human, in vivo): 45%
Duration of rash, median ([3]; human, in vivo): 15 days
Duration of rash, range ([3]; human, in vivo): 4 to 90 days
Grade 3 PN NEC ([3]; human, in vivo): 3%
Patients who discontinued ixazomib due to treatment-emergent AEs ([3]; human, in vivo): 15%
Patients who required platelet transfusions ([3]; human, in vivo): 4%
Patients with ≥1 drug-related AE ([3]; human, in vivo): 90%
Patients with ≥1 drug-related grade ≥3 AE ([3]; human, in vivo): 57%
Patients with ≥1 treatment-emergent AE ([3]; human, in vivo): 99%
Patients with ≥1 treatment-emergent grade ≥3 AE ([3]; human, in vivo): 72%
Drug-related grade ≥3 skin and subcutaneous (SC) tissue disorders ([3]; human, in vivo, sc): 16%
Treatment-related skin and subcutaneous (SC) tissue disorders ([3]; human, in vivo, sc): 53%
On-study deaths ([3]; none considered treatment-related): seven
Paired tumor samples with statistically significant increase in post-dose ATF-3 levels (p <0.05) [4]: Six of the seven
